# Test results: US20110306071A1, “Compositions and Methods for Identifying Substrate Specificity of Inhibitors of Gamma Secretase” (ELAN PHARMACEUTICALS, INC., priority 2007, published 2011)
# Key:
# [1] = system: gamma secretase; assay: Aβ production from C99GVP and mutant or chimeric substrates in transfected HEK cells (ELISA, IP/Western blot); format: cell-based, Human; details: for effect on secreted Aβ / Aβ production compared with C99GVP control: FIGS. 8C, 8D, 9B, 9C; for drop of Aβ40: Aβ40 ELISA, FIG. 9C; for reduction in total Aβ: IP/Western blot densitometry, FIG. 9B
# Description: Plasmid Construction of JMD Chimeric Substrates: A pcDNA3.1-C99 plasmid similar to the previously described SPA4CT-LE construct (Dyrks, et al., FEBS Lett., 1992; 309: 20-24) was generated by standard PCR techniques. The APP signal peptide was fused to the N-terminus of the C99 fragment via a dipeptide leucine-glutamic acid (LE) linker. The strategy used to generate the pcDNA3.1-C99GVP construct was similar to a previously described method (Karlstrom, H., et al., J. Biol. Chem., 2002; 277: 6763-6766). (See, generally, FIG. 3). Briefly, an AscI site was introduced immediately 3′ of the nucleotides encoding the triple-lysine (K) membrane anchor of C99, where the GVP coding sequence was subsequently inserted in frame (to the C-terminal side of the lysine membrane anchor sequence of C99). […] All three chimeras were constructed by using a two-stage PCR method with two pairs of overlapping primers (for list of primers, see Table I). These chimeric substrates were characterized to assess activity as gamma secretase substrates and subsequent production and secretion of Aβ and AICD (FIGS. 6-7). […] The C99GVP-SLSS quadruple JMD chimera was also constructed with the same PCR method. Point mutations within the luminal juxtamembrane domain (i.e., C99GVP-G25S, S26L, N27S and K28S; FIGS. 2 and 9A-D) were generated using QuikChange (Stratagene) site-directed mutagenesis kit according to the manufacturer's instructions. All cDNAs were verified by sequencing. The Aβ and Aβ-like peptides generated from C99GVP and the various chimeric substrates were numbered with reference to the first N-terminal residue (Asp-1) of the Aβ peptide.
# Cell Culture and Transient Transfection: Human embryonic kidney 293 (HEK 293) cells (ATCC) were grown in Dulbecco's Modified Eagle Medium with High Glucose (DMEM, obtained from Gibco/Invitrogen, Cat #11960) supplemented with 10% fetal bovine serum (Hyclone, SV 30014.03) and 50 units/ml penicillin and streptomycin (37° C., 5% CO2). Cells were used at less than passage number 30. At the time of seeding, viability of cells was greater than 95% as determined using a Vi-Cell Analyzer (Beckman-Coulter). Confluence of cells on plates was kept at greater than 95% during all phases of the experiment as determined with a standard tissue culture inverted microscope. All transfections were carried out on 5×10^6 cells in 6-well tissue culture plates (Costar). The following 3 plasmids: pG5E1B-luc, 200 ng (gift from R. Maurer, OHSU); pCMV-β-gal, 100 ng (gift from R. Maurer, OHSU); C99GVP or the various chimeric constructs, 200-400 ng were added together to each well. FuGENE6 reagent (Roche Cat. #11-814443001) was used according to manufacturer's protocol for the transient transfection of adherent cells. Transfected cells were reseeded onto 12 well (2×10^6 cells) and/or 96-well (5×10^4 cells) plates (Costar) 16 h post-transfection; fresh media was added either with or without gamma secretase inhibitors. The cells and conditioned media were harvested 48 h post-transfection for analysis.
# Immunoprecipitation (IP) and Western Blot Detection of Aβ: Total Aβ peptides in conditioned medium or cell lysate were immuno-precipitated at 4° C. overnight with 4 μg of the 2H3 antibody, followed by incubation with 50 μl of a 50% protein G-Sepharose (GE Healthcare) slurry for 1 hr and three washes in the same lysis buffer as described above in the Western Blot discussion. Proteins were eluted from the solid-phase immunoprecipitates in Laemmli sample buffer by heating at 70° C. for 5 min and resolved on 10-20% Tris-Tricine SDS-PAGE or the modified Tris-Tricine/8M urea gels (Qi-Takahara, Y., et al., J Neurosci. (2005; 25, 436-445). After transferring onto nitrocellulose membranes (Invitrogen), the membranes were heated to 98° C. for 5 min in PBS, immunostained with the 2H3 antibody and visualized with Super-signal West Pico chemiluminescent substrate (Pierce). Each experiment was repeated at least three times. […]
# [2] = target: T1, gamma secretase cleavage of C99GVP (AICD-GVP) (Homo sapiens, UniProt P49768); assay: Luciferase reporter gene assay, AICD-GVP transactivation from C99GVP in HEK293 cells; format: cell-based; details: C99-GVP, FIG. 5C
# T1 construct: active gamma secretase is endogenously and constitutively produced by the cell cultures; endogenous in cells; host or cells: HEK 293, co-transfected with C99GVP, pG5E1B-luc and pCMV-β-gal
# Description: Luciferase Reporter Gene Assay: Luciferase reporter assays were carried out 48 hr post-transfection. Cells seeded on 96-well plates (BD Biosciences) were washed once with PBS and harvested in 20 μl of reporter lysis buffer (Promega) per well. After adding 100 μl of luminescent substrate (Promega), the luciferase activity was measured with a MicroLumatPlus microplate luminometer (Berthold Technologies). The β-galactosidase activity was measured similarly, using a luminescent β-galactosidase substrate (BD Biosciences). As a control for transfection efficiency and general effect on transcription, the luciferase activity was normalized by measuring β-galactosidase activity on a duplicate plate. All measurements were done in triplicate and repeated at least three times.
# Luciferase Assay. After confirming AICD-GVP generation in HEK cells, its ability to transactivate a luciferase reporter gene that contains Gal4 response elements in the upstream activation sequence (UAS) was tested. […] Some residual luciferase activity remained in the presence of excess gamma secretase inhibitors, even though identical treatment completely abolished AICD production as measured by Western blot (FIG. 5B). […]
# [3] = system: gamma secretase (secreted Aβ40 and Aβ42); assay: Aβ sandwich ELISA of media from C99GVP or APP transfected HEK cells treated with inhibitors; format: cell-based, Human
# Description: Inhibitor Treatment of Transfected HEK Cell: The transition state analogue gamma secretase inhibitor-L685,458 (Sigma) and the peptidomimetic inhibitor-DAPT (Dovey, H. F., et al., J Neurochem., 2001; 76:173-181) were dissolved in DMSO to make 20 mM stocks. Similarly, a number of Elan's series of sulfonamide inhibitors were prepared and used as described herein (see, also FIGS. 11-14). Inhibitors were added to cell cultures (e.g., HEK) at the indicated final concentration, and the treated cells were harvested 48 h post-transfection. The metallo-proteinase inhibitor TAPI-1 (Calbiochem) was used at a final concentration of 40 μM. The Aβ-degrading enzyme inhibitors, Bacitracin (Calbiochem) and phosphoramidon (Calbiochem) were used at final concentration of 1 mg/ml and 40 μM, respectively. All inhibitor experiments were performed in triplicate and repeated at least three times.
# ELISAs used to quantify different Aβ species were performed using standard techniques as described above and in (Johnson-Wood, K., et al., Proc. Natl. Acad. Sci. U.S.A., 1997; 94: 1550-1555, incorporated by reference). The Aβ40 and Aβ42 peptides in the samples were captured onto 2G3 or 21F12 antibody coated plates, respectively, and detected with a biotinylated 2H3 antibody. The fluorescence signal generated from a streptavidin-alkaline phosphatase conjugate (Roche) was measured with a CytoFlour microplate reader (Applied Biosystems). Synthetic Aβ40 or Aβ42 peptides (Anaspec) were used to generate standard curves (FIG. 10). All measurements were done in triplicate.
# Next, Aβ generation was characterized from C99GVP. Wild type HEK cells and the mock-transfection control secreted little Aβ into the conditioned media (FIG. 5D, lane 1). In contrast, transient expression of C99GVP led to robust Aβ production, as measured by IP/Western blot (FIG. 5D) and ELISAs that detect Aβ 40 and Aβ42 species, respectively ([…], top panel). […] Finally, we compared the Aβ-lowering potency of two inhibitors, using either C99GVP or the wild type APP as substrate. As determined by ELISA, the respective IC50 values for the two substrates are essentially identical (FIG. 5E).
# [4] = target: T2, gamma secretase γ and ε cleavage of Fas-APPsw-DD (Homo sapiens, UniProt P49768); assay: Concurrent Aβ and AICD ELISA in Fas-APPsw-DD transfected 293 cells (APP γ versus ε cleavage); format: cell-based
# T2 construct: active gamma secretase is endogenously and constitutively produced by the cell cultures; endogenous in cells; host or cells: HEK 293, transfected with Fas-APPsw-DD
# Description: Polyclonal antibody AICD ELISA. HEK 293 cells were grown under standard conditions to ˜90% confluence. Cells were harvested, counted, and subsequently plated onto PDL-coated 60 mm dishes at 2×10^6 cells/dish in 5 mL media. The cells were allowed to settle onto the dishes for ˜4 hours. Transfection of various construct into cells was performed using standard techniques using Lipofectamine 2000™ (LF2K) (Invitrogen). Briefly, 2 μg plasmid DNA and 4 μL LF2K were diluted into separate 150 μL aliquots of Opti-MEM (Gibco), and allowed to stand for 10-15 minutes. The two aliquots were then mixed, and the DNA:Lipid complex allowed to form for about 20 minutes. The 300 μL DNA:Lipid complex was then added to the cells in 3 mL fresh media, and incubated overnight. In order to administer potential or known gamma secretase inhibitor compounds to cells, the transfected cells were harvested, replated into PDL-coated 24-well plates at 200,000 cells/well, and allowed to settle onto the plates for ˜4 hours. Cells were washed, and 500 μL fresh media added. […]
# The term ‘non-selective’ in this instance refers to lack of selectivity for cell Aβ over Notch signaling (or GammaAPP over GammaNotch). […] The calculated γ/ε selectivity of the non-selective compounds (FIG. 11 and Table I) were 0.7, 1.1, 1.8 and 1.9 for DAPT, 44989, 46719 and the Merck compound, respectively. […]
molecule,measurement,setting,value
C99GVP-APLP2*: APLP2 JMD swap chimera of C99GVP retaining the pre-TMD GSNK motif of APP (SEQ ID NO:19) (LEDAEFRHDSGLEEERESVGPLREDFGSNKGAIIGLMVGGVVIATVIVITLVML),effect on secreted Aβ / Aβ production compared with C99GVP control,[1],indistinguishable from the C99GVP control
G25S: C99GVP point mutant G25S in the GSNK motif (SEQ ID NO:43) (LEDAEFRHDSGYEVHHQKLVFFAEDVSSNKGAIIGLMVGGVVIATVIVITLVML),effect on secreted Aβ / Aβ production compared with C99GVP control,[1],no obvious effect
C99GVP-S26L: C99GVP point mutant S26L in the GSNK motif (SEQ ID NO:44) (LEDAEFRHDSGYEVHHQKLVFFAEDVGLNKGAIIGLMVGGVVIATVIVITLVML),drop of Aβ40,[1]; versus C99GVP,52.7±2.3%
same,reduction in total Aβ,[1]; versus C99GVP,65.7±8.5%
C99GVP-K28S: C99GVP point mutant K28S in the GSNK motif (SEQ ID NO:46) (LEDAEFRHDSGYEVHHQKLVFFAEDVGSNSGAIIGLMVGGVVIATVIVITLVML),drop of Aβ40,[1]; versus C99GVP,~90%
same,reduction in total Aβ,[1]; versus C99GVP,~90%
N27S: C99GVP point mutant N27S in the GSNK motif (SEQ ID NO:45) (LEDAEFRHDSGYEVHHQKLVFFAEDVGSSKGAIIGLMVGGVVIATVIVITLVML),effect on secreted Aβ / Aβ production compared with C99GVP control,[1],no obvious effect
"CC(C)C[C@H](NC(=O)[C@H](Cc1ccccc1)C[C@@H](O)[C@H](Cc1ccccc1)NC(=O)OC(C)(C)C)C(=O)N[C@@H](Cc1ccccc1)C(N)=O [L-685,458]",luciferase reporter transactivation by AICD-GVP,[2],block luciferase reporter transactivation
same,secreted Aβ (Aβ40 and Aβ42),"[3]; 5 μM, 24 h, FIG. 5D",block secreted Aβ
same,Aβ potency (IC50) with C99GVP versus native APP substrate,[3]; FIG. 5E,equal Aβ potency
same,γ/ε selectivity = IC50 AICD/IC50 Aβ,[4],1.9
C99GVP-SLSS: C99GVP in which the GSNK motif was substituted with SLSS from APLP2 (SEQ ID NO:51) (protein) DAEFRHDSGYEVHHQKLVFFAEDVSLSSGAIIGLMVGGVVIATVIVITLVMLKKKKLLSSIEQACDICRLKKLKCSKEKPKCAKCLKNNWECRYSPKTKRSPLTRAHLTEVESRLERLEQLFLLIFPREDLDMILKMDSLQDIKALLTGLFVQDNVNKDAVTDRLASVETDMPLTLRQHRISATSSSEESSNKGQRQLTVSGIPGDLAPPTDVSLGDELHLDGEDVAMAHADALDDFDLDMLGDGDSPGPGFTPHDSAPYGALDMADFEFEQMFTDALGIDEYGGQYTSIHHGVVEVDAAVTPEERHLSKMQQNGYENPTYKFFEQMQN,reduction in secreted Aβ,"[1]; versus C99GVP, FIGS. 9B and 9C",~97%
